Values quoted from earlier work in US20100063116A1 (priority 2006, published 2010).
Where two headings read alike, the source gives them in different places.

Experiments:
[1] = system: D2 subfamily of dopamine receptors; conditions: in vitro
[2] = system: dopamine receptors in the striatum and the substantia nigra; conditions: electrophysiologic studies in animals
[3] = system: patients with early Parkinson's disease
[4] = system: patients with early Parkinson's disease; remark: listed apart in the source
[5] = end of 6-month maintenance, titrated up to 4.5 mg/day in three divided doses

CCCN[C@@H]1CCc2nc(N)sc2C1 [Pramipexole, pramipexole]
intrinsic activity at the D2 subfamily of dopamine receptors [1]: full intrinsic activity | effect on striatal neuronal firing rates [2]: influences striatal neuronal firing rates | volume of distribution (CV=20%): about 500 L | renal clearance (CV=25%): approximately 400 mL/min | dose recovered in urine (almost all as unchanged drug): 90% | clearance in dialysis patients (dialysis patients): extremely low | terminal half-life (elderly volunteers): about 12 hours | metabolites in plasma or urine (human, in vivo): no metabolites have been identified | pharmacokinetics in early versus advanced Parkinson's disease patients (human, in vivo): comparable | decrease of clearance compared with healthy volunteers (moderate renal impairment (creatinine clearance approximately 40 mL/min)): about 60% | time to steady-state concentrations (of dosing): ≤ 2 days | absolute bioavailability (oral): greater than 90% | linearity of pharmacokinetics (over the clinical dosage range): linear pharmacokinetics | decrease of clearance compared with healthy volunteers (severe renal impairment (creatinine clearance approximately 20 mL/min)): about 75% | effect of food on the extent of absorption (taken with food): does not affect | terminal half-life (young healthy volunteers): about 8 hours | bound to plasma proteins (plasma proteins): about 15% | mean improvement from baseline on the UPDRS part II (ADL) total score [3, 5]: 1.9 | mean improvement from baseline on the UPDRS part III total score [3, 5]: 5.0 | beginning of statistically significant difference versus placebo, UPDRS part II ([3]; maximum dose 0.75 mg/day): 2 week | beginning of statistically significant difference versus placebo, UPDRS part III ([3]; maximum dose 1.5 mg/day): 3 week | dose-response relationship ([4]; 1.5 mg, 3.0 mg, 4.5 mg, or 6.0 mg per day): No dose-response relationship was demonstrated | mean improvement from baseline on the UPDRS part III total score ([4]; end of 4-week maintenance, fixed doses 1.5-6.0 mg per day): 4.2 | mean improvement from baseline on the UPDRS part II total score ([4]; end of 4-week maintenance, fixed doses 1.5-6.0 mg per day, regardless of dose group): 1.8 | benefit of 3 mg, 4.5 mg and 6 mg per day beyond 1.5 mg/day ([4]; fixed-dose study in early Parkinson's disease patients): not shown to provide any significant benefit
